Measurements reported in patent publication US20250282785A1, “PYRROLIDINONE DERIVATIVES AS INHIBITORS OF NF KAPPA B INDUCING KINASE” (priority 2022, published 2025).

Legend:
[1] = target: Recombinant Human NF-Kappab-Inducing Kinase (NIK/MAP3K14) (Homo sapiens, UniProt Q99558); assay: Inhibition of auto-phosphorylation of recombinant human NIK/MAP3K14 (AlphaScreen); format: biochemical; conditions: NIK/MAP3K14 auto-phosphorylation, 5 microM ATP, 1 nM enzyme, 2 h at 25° C.; average of values; read-out: Assay 1 IC50
Sequence of Recombinant Human NF-Kappab-Inducing Kinase (NIK/MAP3K14) (Q99558 whole entry): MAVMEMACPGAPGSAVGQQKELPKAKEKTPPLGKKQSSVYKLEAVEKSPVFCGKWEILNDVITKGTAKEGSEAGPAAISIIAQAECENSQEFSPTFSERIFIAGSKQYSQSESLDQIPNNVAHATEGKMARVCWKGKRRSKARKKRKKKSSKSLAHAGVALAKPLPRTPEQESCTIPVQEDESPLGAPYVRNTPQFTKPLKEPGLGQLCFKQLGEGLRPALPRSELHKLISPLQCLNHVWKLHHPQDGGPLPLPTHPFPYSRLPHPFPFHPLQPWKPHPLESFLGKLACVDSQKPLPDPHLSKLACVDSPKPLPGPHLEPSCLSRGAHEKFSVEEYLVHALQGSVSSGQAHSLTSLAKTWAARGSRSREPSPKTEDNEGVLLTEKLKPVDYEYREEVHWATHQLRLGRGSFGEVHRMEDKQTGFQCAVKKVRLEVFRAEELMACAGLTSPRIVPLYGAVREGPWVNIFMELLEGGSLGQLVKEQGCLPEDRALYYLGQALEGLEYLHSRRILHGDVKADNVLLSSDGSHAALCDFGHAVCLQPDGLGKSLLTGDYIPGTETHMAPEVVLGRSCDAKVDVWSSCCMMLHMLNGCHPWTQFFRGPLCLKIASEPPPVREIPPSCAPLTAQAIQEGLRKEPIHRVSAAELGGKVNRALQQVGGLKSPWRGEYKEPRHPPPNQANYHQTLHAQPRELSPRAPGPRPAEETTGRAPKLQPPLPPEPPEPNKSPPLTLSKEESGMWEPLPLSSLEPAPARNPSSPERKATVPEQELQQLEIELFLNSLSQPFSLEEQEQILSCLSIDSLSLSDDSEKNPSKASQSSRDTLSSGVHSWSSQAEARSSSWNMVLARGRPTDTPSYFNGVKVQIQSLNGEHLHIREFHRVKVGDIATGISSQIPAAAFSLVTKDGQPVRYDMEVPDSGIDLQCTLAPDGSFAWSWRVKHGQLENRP
In short: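 GST-tagged NIK (1 nM) auto-phosphorylation with 5 µM ATP in Tris pH 7.5/MgCl2 buffer, 0.7% DMSO, 2 h at 25 °C. Phospho-IKK Ser176/180 antibody detected by AlphaScreen beads. Signal normalized to full-enzyme and no-ATP controls; IC50 from sigmoidal fit of % inhibition vs log concentration.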

[2] = tested on: p-IKKα levels in L363 (NIK translocated multiple myeloma) cells; assay: Effect of compounds on p-IKKα levels in L363 cells (AlphaLISA SureFire Ultra); format: cell-based; conditions: Homo sapiens, L-363; L363 cells, BAFF stimulated, MG132, 6 h; average of values; read-out: Assay 2 IC50
In short: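 L363 myeloma cells were BAFF-stimulated (250 ng/ml) overnight in DMEM/0.5% BSA, then exposed 6 h at 37° C to compound (11-point 1:3 series, 0.3% DMSO) with BAFF plus 10 uM MG132. p-IKKα (Ser 176/180) was read by AlphaLISA SureFire Ultra in lysates. IC50 came from sigmoidal fits normalized to stimulated and unstimulated controls.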

SMILES	IC50 [1] [µM]	IC50 [2] [µM]
CN1CC[C@@](O)(c2cc(-c3cccc(-c4nc5c(c(C(N)=O)n4)[C@H]4CC[C@@H](C5)O4)c3)no2)C1=O [Example 171, (5R,8S)-2-(3-(5-((R)-3-Hydroxy-1-methyl-2-oxopyrrolidin-3-yl)isoxazol-3-yl)phenyl)-6,7,8,9-tetrahydro-5H-5,8-epoxycyclohepta[d]pyrimidine-4-carboxamide]	< 0.1	> 0.501
CN1CC[C@@](O)(c2cc(-c3cccc(-c4nc(C(N)=O)c(N)s4)c3)no2)C1=O [Example 206, (R)-5-Amino-2-(3-(5-(3-hydroxy-1-methyl-2-oxopyrrolidin-3-yl)isoxazol-3-yl)phenyl)thiazole-4-carboxamide]	< 0.1	< 0.1
Cc1cc(-c2cccc(-c3cc([C@]4(O)CCN(C)C4=O)on3)c2)nc(C(N)=O)c1N [Example 45, (R)-3-Amino-6-(3-(5-(3-hydroxy-1-methyl-2-oxopyrrolidin-3-yl)isoxazol-3-yl)phenyl)-4-methylpicolinamide]	< 0.1	< 0.1
CN1CC[C@@](O)(c2cc(-c3cccc(-c4ccc5occc5n4)c3)no2)C1=O [Example 66, (R)-3-(3-(3-(Furo[3,2-b]pyridin-5-yl)phenyl)isoxazol-5-yl)-3-hydroxy-1-methylpyrrolidin-2-one]	> 0.501	> 0.501
CN1CC[C@@](O)(c2cc(-c3cccc(-c4ncc(Nc5cnn(C)c5)c(C(N)=O)n4)c3)no2)C1=O [Example 137, (R)-2-(3-(5-(3-Hydroxy-1-methyl-2-oxopyrrolidin-3-yl)isoxazol-3-yl)phenyl)-5-((1-methyl-1H-pyrazol-4-yl)amino)pyrimidine-4-carboxamide]	< 0.1	< 0.1
CN1CC[C@@](O)(c2cc(-c3cccc(-c4nc5c(N)ncnc5s4)c3)no2)C1=O [Example 13, (R)-3-(3-(3-(7-Aminothiazolo[5,4-d]pyrimidin-2-yl)phenyl)isoxazol-5-yl)-3-hydroxy-1-methylpyrrolidin-2-one]	< 0.1	> 0.501
CN1CC[C@@](O)(c2cc(-c3cccc(-c4nc(C(N)=O)c(N)cc4F)c3)no2)C1=O [Example 89, (R)-3-Amino-5-fluoro-6-(3-(5-(3-hydroxy-1-methyl-2-oxopyrrolidin-3-yl)isoxazol-3-yl)phenyl)picolinamide]	< 0.1	0.1 to 0.5
Cc1n[nH]c2nc(-c3cccc(-c4cc([C@]5(O)CCN(C)C5=O)on4)c3)cc(C(N)=O)c12 [Example 84, (R)-6-(3-(5-(3-Hydroxy-1-methyl-2-oxopyrrolidin-3-yl)isoxazol-3-yl)phenyl)-3-methyl-1H-pyrazolo[3,4-b]pyridine-4-carboxamide]	> 0.501	> 0.501
CN1CC[C@@](O)(c2cc(-c3cccc(-c4nc(C(N)=O)c(CN5CCCC5)s4)c3)no2)C1=O [Example 231, (R)-2-(3-(5-(3-Hydroxy-1-methyl-2-oxopyrrolidin-3-yl)isoxazol-3-yl)phenyl)-5-(pyrrolidin-1-ylmethyl)thiazole-4-carboxamide]	< 0.1	> 0.501
CN1CC[C@@](O)(c2cc(-c3cccc(-c4ccc5nnc(N)n5c4)c3)no2)C1=O [Example 74, (R)-3-(3-(3-(3-Amino-[1,2,4]triazolo[4,3-a]pyridin-6-yl)phenyl)isoxazol-5-yl)-3-hydroxy-1-methylpyrrolidin-2-one]	> 0.501	> 0.501
CN1CC[C@@](O)(c2cnn(-c3cccc(-c4cccc(C(N)=O)n4)c3)c2)C1=O (single isomer, unassigned) [Example 29]	> 0.501	> 0.501
CN1CC[C@@](O)(c2cc(-c3cccc(-c4ccn5nccc5c4)c3)no2)C1=O [Example 58, (R)-3-hydroxy-1-methyl-3-(3-(3-(pyrazolo[1,5-a]pyridin-5-yl)phenyl)isoxazol-5-yl)pyrrolidin-2-one]	0.1 to 0.5	> 0.501
CN1CC[C@@](O)(c2cc(-c3cccc(-c4cc(N5CC(F)(F)C5)cc(C(N)=O)n4)c3)no2)C1=O [Example 100, (R)-4-(3,3-Difluoroazetidin-1-yl)-6-(3-(5-(3-hydroxy-1-methyl-2-oxopyrrolidin-3-yl)isoxazol-3-yl)phenyl)picolinamide]	< 0.1	> 0.501
[2H]c1nc(N)c2nc(-c3cccc(-c4ncc([C@]5(O)CCN(C)C5=O)o4)c3)ccc2n1 (single isomer, unassigned) [Example 39]	> 0.501	> 0.501
CN1CC[C@@](O)(c2cc(-c3cccc(-c4cccc5[nH]ccc45)c3)no2)C1=O [Example 77, (R)-3-(3-(3-(1H-Indol-4-yl)phenyl)isoxazol-5-yl)-3-hydroxy-1-methylpyrrolidin-2-one]	> 0.501	> 0.501
Cc1cn2cc(-c3cccc(-c4cc([C@]5(O)CCN(C)C5=O)on4)c3)ccc2n1 [Example 79, (R)-3-Hydroxy-1-methyl-3-(3-(3-(2-methylimidazo[1,2-a]pyridin-6-yl)phenyl)isoxazol-5-yl)pyrrolidin-2-one]	> 0.501	> 0.501
COc1ccc(-c2cccc(-c3cc([C@]4(O)CCN(C)C4=O)on3)c2)nc1C(N)=O [Example 87, (R)-6-(3-(5-(3-Hydroxy-1-methyl-2-oxopyrrolidin-3-yl)isoxazol-3-yl)phenyl)-3-methoxypicolinamide]	> 0.501	> 0.501
Cc1n[nH]c(C)c1Nc1cnc(-c2cccc(-c3cc([C@]4(O)CCN(C)C4=O)on3)c2)nc1C(N)=O [Example 142, (R)-5-((3,5-Dimethyl-1H-pyrazol-4-yl)amino)-2-(3-(5-(3-hydroxy-1-methyl-2-oxopyrrolidin-3-yl)isoxazol-3-yl)phenyl)pyrimidine-4-carboxamide]	< 0.1	0.1 to 0.5
CN1CC[C@@](O)(c2cc(-c3cccc(-c4ccc5c(n4)c(N)nn5C)c3)no2)C1=O [Example 5, (R)-3-(3-(3-(3-Amino-1-methyl-1H-pyrazolo[4,3-b]pyridin-5-yl)phenyl)isoxazol-5-yl)-3-hydroxy-1-methylpyrrolidin-2-one]	0.1 to 0.5	> 0.501
CN1CC[C@@](O)(c2cc(C3CCCN(c4ccc5ncnc(N)c5n4)C3)no2)C1=O (mixture of isomers) [Example 201, (3R)-3-(3-(1-(4-Aminopyrido[3,2-d]pyrimidin-6-yl)piperidin-3-yl)isoxazol-5-yl)-3-hydroxy-1-methylpyrrolidin-2-one]	< 0.1	> 0.501
Cc1ncc(C#N)cc1Nc1sc(-c2cccc(-c3cc([C@]4(O)CCN(C)C4=O)on3)c2)nc1C(N)=O [Example 235, (R)-5-((5-Cyano-2-methylpyridin-3-yl)amino)-2-(3-(5-(3-hydroxy-1-methyl-2-oxopyrrolidin-3-yl)isoxazol-3-yl)phenyl)thiazole-4-carboxamide]	< 0.1	< 0.1
CCn1nc(C(F)(F)F)cc1-c1cc(C(N)=O)nc(-c2cccc(-c3cc([C@]4(O)CCN(C)C4=O)on3)c2)c1 [Example 188, (R)-4-(1-Ethyl-3-(trifluoromethyl)-1H-pyrazol-5-yl)-6-(3-(5-(3-hydroxy-1-methyl-2-oxopyrrolidin-3-yl)isoxazol-3-yl)phenyl)picolinamide]	< 0.1	> 0.501
CN1CC[C@@](O)(c2cc(-c3cccc(-n4ccc(C(N)=O)n4)c3)no2)C1=O [Example 193, (R)-1-(3-(5-(3-Hydroxy-1-methyl-2-oxopyrrolidin-3-yl)isoxazol-3-yl)phenyl)-1H-pyrazole-3-carboxamide]	< 0.1	> 0.501
CN1CC[C@@](O)(c2cc(-c3cccc(-c4cc(C5CC5)nc(C(N)=O)n4)c3)no2)C1=O [Example 85, (R)-4-Cyclopropyl-6-(3-(5-(3-hydroxy-1-methyl-2-oxopyrrolidin-3-yl)isoxazol-3-yl)phenyl)pyrimidine-2-carboxamide]	< 0.1	> 0.501
CN1CC[C@@](O)(c2cc(-c3ccnc(-c4ccc(N)c(C(N)=O)n4)c3)no2)C1=O [Example 169, (R)-5-Amino-4′-(5-(3-hydroxy-1-methyl-2-oxopyrrolidin-3-yl)isoxazol-3-yl)-[2,2′-bipyridine]-6-carboxamide]	< 0.1	< 0.1
CN1CC[C@@](O)(c2cc(-c3cccc(-c4ncc(Nc5ccn(C)n5)c(C(N)=O)n4)c3)no2)C1=O [Example 130, (R)-2-(3-(5-(3-Hydroxy-1-methyl-2-oxopyrrolidin-3-yl)isoxazol-3-yl)phenyl)-5-((1-methyl-1H-pyrazol-3-yl)amino)pyrimidine-4-carboxamide]	< 0.1	< 0.1
COc1cc(-c2cccc(-c3cc([C@]4(O)CCN(C)C4=O)on3)c2)nc2[nH]ncc12 [Example 224, (R)-3-Hydroxy-3-(3-(3-(4-methoxy-1H-pyrazolo[3,4-b]pyridin-6-yl)phenyl)isoxazol-5-yl)-1-methylpyrrolidin-2-one]	0.1 to 0.5	> 0.501
CN1CC[C@@](O)(c2cc(-c3cccc(-n4nc(C(N)=O)c5ccccc54)c3)no2)C1=O [Example 166, (R)-1-(3-(5-(3-hydroxy-1-methyl-2-oxopyrrolidin-3-yl)isoxazol-3-yl)phenyl)-1H-indazole-3-carboxamide]	< 0.1	0.1 to 0.5
